From PubChem BioAssay AID248 (DTP/NCI, 2004)
Where “and” joins values, the source holds several entries; their conditions need not be identical. Equal entries are not always repeated. Toxic doses and inconclusive results are not listed. Rule as the data show it: active = T/C of 150% or more; inactive = T/C below 125%.

Tested on: L1210 leukemia ip in BDF1 mice, survival T/C
Assay: NCI In Vivo Anticancer Drug Screen. Data for tumor model L1210 Leukemia (intraperitoneal) in B6D2F1 (BDF1) mice
Settings: endpoint: mean survival time, higher = longer survival
In short: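 Transplanted-tumor mice were given test agent; controls received vehicle only. Survival readings from the two groups were divided (treated over control).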

[1] = dose: 50.0 mg/kg/injection, schedule: Q01DX001 (ip), vehicle: carboxymethylcellulose (CMC)
[2] = dose: 100.0 mg/kg/injection, schedule: Q01DX001 (ip), vehicle: carboxymethylcellulose (CMC)
[3] = dose: 200.0 mg/kg/injection, schedule: Q01DX001 (ip), vehicle: carboxymethylcellulose (CMC)
[4] = dose: 400.0 mg/kg/injection, schedule: Q01DX001 (ip), vehicle: carboxymethylcellulose (CMC)
[5] = dose: 100.0 mg/kg/injection, schedule: Q01DX009 (ip), vehicle: Klucel (hydroxypropylcellulose) (HPC)
[6] = dose: 100.0 mg/kg/injection, schedule: Q04DX003 (ip), vehicle: saline
[7] = dose: 200.0 mg/kg/injection, schedule: Q01DX009 (ip), vehicle: Klucel (hydroxypropylcellulose) (HPC)
[8] = dose: 200.0 mg/kg/injection, schedule: Q04DX003 (ip), vehicle: saline
[9] = dose: 400.0 mg/kg/injection, schedule: Q04DX003 (ip), vehicle: saline
[10] = dose: 50.0 mg/kg/injection, schedule: Q01DX001 (ip), vehicle: Klucel (hydroxypropylcellulose) (HPC)
[11] = dose: 100.0 mg/kg/injection, schedule: Q01DX001 (ip), vehicle: Klucel (hydroxypropylcellulose) (HPC)
[12] = dose: 100.0 mg/kg/injection, schedule: Q04DX002 (sc), vehicle: olive oil, sesame oil, peanut oil

Measured: T/C

CC1(C)C2CCC1(CS(=O)(=O)Cl)C(=O)C2 (stereo not given)
inactive: [1] 100 % of control | [2] 97 % of control | [3] 97 % of control

COc1ccc2c(CSc3nc(N)nc4nc[nH]c34)cc(=O)oc2c1
inactive: dose: 25.0 mg/kg/injection, schedule: Q04DX002 (ip), vehicle: Klucel (hydroxypropylcellulose) (HPC) 108 % of control | dose: 50.0 mg/kg/injection, schedule: Q04DX002 (ip), vehicle: Klucel (hydroxypropylcellulose) (HPC) 112 % of control | dose: 100.0 mg/kg/injection, schedule: Q04DX002 (ip), vehicle: Klucel (hydroxypropylcellulose) (HPC) 120 % of control | dose: 200.0 mg/kg/injection, schedule: Q04DX002 (ip), vehicle: Klucel (hydroxypropylcellulose) (HPC) 123 % of control | dose: 400.0 mg/kg/injection, schedule: Q04DX002 (ip), vehicle: Klucel (hydroxypropylcellulose) (HPC) 115 % of control

C#CCN(C)C(=O)Nc1ccccc1
inactive: dose: 100.0 mg/kg/injection, schedule: Q04DX002 (ip), vehicle: saline with Tween-80 91 % of control | dose: 200.0 mg/kg/injection, schedule: Q04DX002 (ip), vehicle: saline with Tween-80 91 % of control | dose: 400.0 mg/kg/injection, schedule: Q04DX002 (ip), vehicle: saline with Tween-80 113 % of control

O=C(c1ccc([N+](=O)[O-])cc1)c1ccc(O)cc1O
inactive: dose: 100.0 mg/kg/injection, schedule: Q01DX001 (ip), vehicle: other 101 % of control | dose: 100.0 mg/kg/injection, schedule: Q04DX003 (ip), vehicle: other 100 % of control | dose: 200.0 mg/kg/injection, schedule: Q01DX001 (ip), vehicle: other 101 % of control | dose: 200.0 mg/kg/injection, schedule: Q04DX003 (ip), vehicle: other 101 % of control | dose: 400.0 mg/kg/injection, schedule: Q01DX001 (ip), vehicle: other 103 % of control | dose: 400.0 mg/kg/injection, schedule: Q04DX003 (ip), vehicle: other 97 % of control

Nc1nc(Cl)nc2c1ncn2C1CC(O)C(CO)O1 (stereo not given)
inactive: dose: 44.4 mg/kg/injection, schedule: Q01DX001 (ip), vehicle: carboxymethylcellulose (CMC) 118 % of control | [1] 109 % of control | dose: 66.6 mg/kg/injection, schedule: Q01DX001 (ip), vehicle: carboxymethylcellulose (CMC) 112 % of control | [2] 109 % of control and 118 % of control | [3] 120 % of control and 124 % of control | [4] 102 % of control

CC1CCCN(C(=S)[S-])C1.CC1CCCN(C(=S)[S-])C1.[Zn] (stereo not given)
inactive: dose: 1.25 mg/kg/injection, schedule: Q01DX009 (ip), vehicle: saline 88 % of control | dose: 2.5 mg/kg/injection, schedule: Q01DX009 (ip), vehicle: saline 86 % of control | dose: 2.5 mg/kg/injection, schedule: Q04DX003 (ip), vehicle: acetone 91 % of control | dose: 5.0 mg/kg/injection, schedule: Q04DX003 (ip), vehicle: acetone 88 % of control | dose: 10.0 mg/kg/injection, schedule: Q01DX001 (ip), vehicle: saline 96 % of control | dose: 10.0 mg/kg/injection, schedule: Q04DX003 (ip), vehicle: acetone 88 % of control | dose: 10.0 mg/kg/injection, schedule: Q04DX003 (ip), vehicle: saline 86 % of control

CC(=O)Nc1cccc2cccnc12
inactive: dose: 12.5 mg/kg/injection, schedule: Q01DX009 (ip), vehicle: saline with Tween-80 92 % of control | dose: 25.0 mg/kg/injection, schedule: Q01DX009 (ip), vehicle: saline with Tween-80 95 % of control | dose: 50.0 mg/kg/injection, schedule: Q01DX009 (ip), vehicle: saline with Tween-80 90 % of control | dose: 75.0 mg/kg/injection, schedule: Q01DX001 (ip), vehicle: other 104 % of control | dose: 75.0 mg/kg/injection, schedule: Q01DX009 (ip), vehicle: other 98 % of control | dose: 75.0 mg/kg/injection, schedule: Q01DX009 (ip), vehicle: saline with Tween-80 87 % of control | [5] 90 % of control | dose: 100.0 mg/kg/injection, schedule: Q01DX009 (ip), vehicle: saline 93 % of control | dose: 100.0 mg/kg/injection, schedule: Q04DX003 (ip), vehicle: saline with Tween-80 107 % of control | [6] 108 % of control | dose: 150.0 mg/kg/injection, schedule: Q01DX001 (ip), vehicle: other 103 % of control | [7] 93 % of control | dose: 200.0 mg/kg/injection, schedule: Q01DX009 (ip), vehicle: saline 95 % of control | [8] 106 % of control | dose: 300.0 mg/kg/injection, schedule: Q01DX001 (ip), vehicle: other 94 % of control | [9] 89 % of control

Cc1cc(C)c([N+](=O)[O-])cc1N
inactive: [10] 101 % of control | [11] 98 % of control | dose: 200.0 mg/kg/injection, schedule: Q01DX001 (ip), vehicle: Klucel (hydroxypropylcellulose) (HPC) 93 % of control

c1ccc2c(c1)[nH]c1c2c[n+]2c3c(cccc13)CCC2
inactive: dose: 3.13 mg/kg/injection, schedule: Q01DX009 (ip), vehicle: saline 105 % of control | dose: 6.25 mg/kg/injection, schedule: Q01DX009 (ip), vehicle: saline 105 % of control | dose: 12.5 mg/kg/injection, schedule: Q01DX009 (ip), vehicle: saline 105 % of control

C=CCc1cnc(C(F)(F)F)[nH]c1=O
inactive: dose: 25.0 mg/kg/injection, schedule: Q01DX001 (ip), vehicle: Klucel (hydroxypropylcellulose) (HPC) 93 % of control | [10] 94 % of control | [11] 94 % of control

COc1ccc(-c2ccccc2)cc1SCCC(=O)O
inactive: [1] 114 % of control | [2] 101 % of control | [3] 97 % of control | [4] 95 % of control

O=C(N/C=C/NC(=O)Oc1c(I)cc(I)cc1I)Oc1c(I)cc(I)cc1I
inactive: [5] 92 % of control | [7] 100 % of control | dose: 400.0 mg/kg/injection, schedule: Q01DX009 (ip), vehicle: Klucel (hydroxypropylcellulose) (HPC) 102 % of control

CC1(C(O)(c2ccccc2)c2ccccc2)CC1
inactive: dose: 25.0 mg/kg/injection, schedule: Q04DX002 (sc), vehicle: olive oil, sesame oil, peanut oil 109 % of control | dose: 50.0 mg/kg/injection, schedule: Q04DX002 (sc), vehicle: olive oil, sesame oil, peanut oil 97 % of control | [12] 106 % of control

c1ccc2c(c1)[nH]c1nc3ncncc3nc12
inactive: [6] 94 % of control | [8] 88 % of control | [9] 97 % of control

C=COC(=O)N1CCCC1C(=O)O (stereo not given)
inactive: dose: 100.0 mg/kg/injection, schedule: Q01DX001 (ip), vehicle: saline 92 % of control | dose: 200.0 mg/kg/injection, schedule: Q01DX001 (ip), vehicle: saline 94 % of control | dose: 400.0 mg/kg/injection, schedule: Q01DX001 (ip), vehicle: saline 90 % of control

N=C(N)c1ccc(OCCCCCCOc2ccc(C(=N)N)cc2I)cc1
inactive: dose: 6.25 mg/kg/injection, schedule: Q01DX Z (oral), vehicle: saline 103 % of control | dose: 12.5 mg/kg/injection, schedule: Q01DX Z (oral), vehicle: saline 103 % of control | dose: 25.0 mg/kg/injection, schedule: Q01DX Z (oral), vehicle: saline 97 % of control | dose: 50.0 mg/kg/injection, schedule: Q01DX Z (oral), vehicle: saline 101 % of control | dose: 100.0 mg/kg/injection, schedule: Q01DX Z (oral), vehicle: saline 100 % of control | dose: 200.0 mg/kg/injection, schedule: Q01DX Z (oral), vehicle: saline 100 % of control

C1CCC(C2=NC3CCCCC3SC2)CC1 (stereo not given)
inactive: [12] 103 % of control | dose: 200.0 mg/kg/injection, schedule: Q04DX002 (sc), vehicle: olive oil, sesame oil, peanut oil 107 % of control | dose: 400.0 mg/kg/injection, schedule: Q04DX002 (sc), vehicle: olive oil, sesame oil, peanut oil 96 % of control
